# Measured values from US7358248B2, “Substituted amino carboxylic acids” (The Institute for Pharmaceutical Discovery LLC, priority 2003, dated 2008).
row,melting point,Compound
1,108 to 109 °C,"O=C(Cc1cccc([N+](=O)[O-])c1)N[C@@H](CSCc1ccc(-c2ccc(-c3c(Cc4ccccc4)oc4ccccc34)cc2)cc1)C(=O)O [Example 75, (2R)-2-(3-Nitrophenylacetylamino)-3-[4′-(2-benzylbenzofuran-3-yl)biphen-4-ylmethylsulfanyl]-propionic acid]"
2,81 to 82 °C,"COC(=O)N[C@@H](CSCc1ccc(-c2ccc(-n3ccc4ccccc43)cc2)cc1)C(=O)O [Example 12, (2R)-3-(4′-Indol-1-ylbiphen-4-ylmethylsulfanyl)-2-methoxycarbonylamino-propionic acid]"
3,223 to 226 °C,"CC(=O)NC(CSCc1ccc(-c2nc(-c3ccccc3)cc(-c3ccccc3)n2)cc1)C(=O)O (stereo not drawn) [Example 95, 2-Acetylamino-3-[4-(4,6-diphenyl-pyrimidin-2-yl)-benzylsulfanyl]-propionic acid]"
4,138 to 139 °C,"O=C(N[C@@H](CSCc1ccc(-c2ccc(-c3c(Cc4ccccc4)oc4ccccc34)cc2)cc1)C(=O)O)c1ccccc1 [Example 70, (2R)-2-Benzoylamino-3-[4′-(2-benzylbenzofuran-3-yl)biphen-4-ylmethylsulfanyl]-propionic acid]"
5,94 °C,"O=C(Cc1cccc([N+](=O)[O-])c1)N[C@@H](CSCc1ccc(-c2ccc(-n3ccc4ccccc43)cc2)cc1)C(=O)O [Example 10, (2R)-3-(4′-Indol-1-ylbiphen-4-ylmethylsulfanyl)-2-[2-(3-nitrophenyl)acetylamino]-propionic acid]"
6,102 to 103 °C,"O=C(Cc1ccc([N+](=O)[O-])cc1)N[C@@H](CSCc1ccc(-c2ccc(-c3c(Cc4ccccc4)oc4ccccc34)cc2)cc1)C(=O)O [Example 77, (2R)-2-(4-Nitrophenylacetylamino)-3-[4′-(2-benzylbenzofuran-3-yl)biphen-4-ylmethylsulfanyl]-propionic acid]"
7,77 to 78 °C,"O=C(Cc1ccccc1)N[C@@H](CSCc1ccc(-c2ccc(-c3c(Cc4ccccc4)oc4ccccc34)cc2)cc1)C(=O)O [Example 71, (2R)-2-Phenylacetylamino-3-[4′-(2-benzylbenzofuran-3-yl)biphen-4-ylmethyl-sulfanyl]-propionic acid]"
8,197 to 198 °C,"O=C(Cc1cccc([N+](=O)[O-])c1)N[C@@H](C[S+]([O-])Cc1ccc(-c2ccc(-n3ccc4ccccc43)cc2)cc1)C(=O)O (stereo partly drawn) [Example 17, (2R)-3-(4′-Indol-1-ylbiphen-4-ylmethylsulfinyl)-2-[2-(3-nitrophenyl)acetylamino]-propionic acid]"
9,82 to 84 °C,"O=C(Cc1ccc(F)cc1)N[C@@H](CSCc1ccc(-c2ccc(-c3c(Cc4ccccc4)oc4ccccc34)cc2)cc1)C(=O)O [Example 74, (2R)-2-(4-Fluorophenylacetylamino)-3-[4′-(2-benzylbenzofuran-3-yl)biphen-4-ylmethylsulfanyl]-propionic acid]"
10,195 °C (dec.),"O=C(O)[C@H](CSCc1ccc(-c2ccc(-n3ccc4ccccc43)cc2)cc1)NC(=O)N1CCOCC1 [Example 14, (2R)-3-(4′-Indol-1-ylbiphen-4-ylmethylsulfanyl)-2-[(morpholine-4-carbonyl)-amino]-propionic acid]"
11,189 to 191 °C,"O=C(Cc1ccccc1[N+](=O)[O-])N[C@@H](CSCc1ccc(-c2ccc(-c3c(Cc4ccccc4)oc4ccccc34)cc2)cc1)C(=O)O [Example 78, (2R)-2-(2-Nitrophenylacetylamino)-3-[4′-(2-benzylbenzofuran-3-yl)biphen-4-ylmethylsulfanyl]-propionic acid]"
12,148 to 149 °C,"O=C(Cc1ccc(O)cc1)N[C@@H](CSCc1ccc(-c2ccc(-c3c(Cc4ccccc4)oc4ccccc34)cc2)cc1)C(=O)O [Example 79, (2R)-2-(4-Hydroxyphenylacetylamino)-3-[4′-(2-benzylbenzofuran-3-yl)biphen-4-ylmethylsulfanyl]-propionic acid]"
13,131 to 132 °C,"CC(=O)N[C@@H](CSCc1ccc(-c2ccc(-c3c(Cc4ccccc4)oc4ccccc34)cc2)cc1)C(=O)O [Example 80, (2R)-2-Acetylamino-3-[4′-(2-benzylbenzofuran-3-yl)biphen-4-ylmethylsulfanyl]-propionic acid]"
14,170 to 172 °C,"Nc1ccc(CC(=O)N[C@@H](CSCc2ccc(-c3ccc(-c4c(Cc5ccccc5)oc5ccccc45)cc3)cc2)C(=O)O)cc1 [Example 82, (2R)-2-(4-Aminophenylacetylamino)-3-[4′-(2-benzylbenzofuran-3-yl)biphen-4-ylmethylsulfanyl]-propionic acid]"
15,149 to 150 °C,O=C(N[C@@H](CSCc1ccc(-c2ccc(-c3c(Cc4ccccc4)oc4ccccc34)cc2)cc1)C(=O)O)c1ccc2nc[nH]c2c1 [Example 73]
16,59 to 60 °C,"COc1ccc(CC(=O)N[C@@H](CSCc2ccc(-c3ccc(-c4c(Cc5ccccc5)oc5ccccc45)cc3)cc2)C(=O)O)cc1 [Example 81, (2R)-2-(4-Methoxyphenylacetylamino)-3-[4′-(2-benzylbenzofuran-3-yl)biphen-4-ylmethylsulfanyl]-propionic acid]"

row,Compound,melting point
1,"CC(C)(C)OC(=O)N[C@@H](C[S+]([O-])Cc1ccc(-c2ccc(-n3ccc4ccccc43)cc2)cc1)C(=O)O (stereo partly drawn) [Example 7, (2R)-tert-Butoxycarbonylamino-3-(4′-indol-1-ylbiphen-4-ylmethylsulfinyl)-propionic acid]",169 to 170 °C
2,"CC(C)(C)OC(=O)N[C@@H](C[S+]([O-])Cc1ccc(-c2ccc(-c3c(Cc4ccccc4)oc4ccccc34)cc2)cc1)C(=O)O (stereo partly drawn) [Example 67, (2R,4RS)-3-[4′-(2-benzylbenzofuran-3-yl)biphen-4-ylmethylsulfinyl]-2-tert-butoxycarbonylaminopropionic acid]",195 to 196 °C
3,"CC(C)(C)OC(=O)N[C@@H](CSCc1ccc(-c2ccc(-c3ccc4c(c3)OCO4)cc2)cc1)C(=O)O (stereo in doubt) [Example 101, 3-(4′-Benzo[1,3]dioxol-5-yl-biphenyl-4-ylmethylsulfanyl)-2-tert-butoxycarbonylamino-propionic acid]",178 to 180 °C
4,"CC(C)(C)OC(=O)N[C@@H](CSCc1ccc(-c2ccc(-c3cccc4c3sc3ccccc34)cc2)cc1)C(=O)O [Example 107, 2-tert-Butoxycarbonylamino-3-(4′-dibenzothiophen-4-yl-biphenyl-4-ylmethyl-sufanyl)-propionic acid]",108 to 110 °C
5,"CC(C)(C)OC(=O)N[C@@H](CS(=O)(=O)Cc1ccc(-c2ccc(-c3c(Cc4ccccc4)oc4ccccc34)cc2)cc1)C(=O)O [Example 68, (2R)-3-[4′-(2-benzylbenzofuran-3-yl)biphen-4-ylmethylsulfonyl]-2-tert-butoxycarbonylaminopropionic acid]",202 to 203 °C
6,"CC(C)(C)OC(=O)N[C@@H](CSCc1ccc(-c2ccc(-c3c(Cc4ccccc4)oc4ccccc34)cc2)cc1)C(=O)O [Example 66, (2R)-3-[4′-(2-benzylbenzofuran-3-yl)biphen-4-ylmethylsulfanyl]-2-tert-butoxy-carbonylamino-propionic acid]",89 to 90 °C
7,"CC(C)COC(=O)N[C@@H](CSCc1ccc(-c2ccc(-n3ccc4ccccc43)cc2)cc1)C(=O)O [Example 13, (2R)-3-(4′-Indol-1-ylbiphen-4-ylmethylsulfanyl)-2-isobutoxycarbonylamino-propionic acid]",85 to 86 °C
8,"CC(C)(C)OC(=O)NC(CSCc1ccc(-c2nc(-c3ccccc3)cc(-c3ccccc3)n2)cc1)C(=O)O (stereo not drawn) [Example 93, 2-tert-Butoxy carbonylamino-3-[4-(4,6-diphenylpyrimidin-2-yl)-benzylsulfanyl]propionic acid]",250 °C (dec.)
